Values after ≈ are worked out from the molar mass of the structure shown.
How the values were obtained:
[1] = test system: Mycobacterium tuberculosis; assay: Antimicrobial activity against Mycobacterium tuberculosis H37Rv ATCC 27294 at 6.25 ug/mL by broth microdilution assay; format: functional
[2] = test system: Mycobacterium tuberculosis; assay: Antimicrobial activity against Mycobacterium tuberculosis H37Rv ATCC 27294 by microplate Almar blue assay; format: functional; settings: Mycobacterium tuberculosis, H37Rv ATCC 27294; read-out: MIC
Vero = assay: Cytotoxicity against african green monkey Vero cells at after 72 hrs by MTT assay; format: cell-based, Chlorocebus sabaeus; settings: Chlorocebus sabaeus, Vero, 72 h; read-out: IC50
[3] = Selective index, the ratio of IC50 in the african green monkey Vero cells to the MIC to Mycobacterium tuberculosis H37Rv ATCC 27294; format: functional

Row | Structure (SMILES) | inhibition at 6.25 µg/mL [1] [%] | MIC [2] [µg/mL] | IC50 (Vero) [µg/mL] | Selectivity Index [3]
1 | c1ccc(CCN2CCN([C@@H](CC3CCCCC3)CN3CCCC3CN3CCNC[C@@H]3Cc3ccccc3)C[C@@H]2Cc2ccccc2)cc1 (some centres not stated) | 100 | 2 (≈ 3.02 µM) | 0.99 (≈ 1.5 µM) | 0.5
2 | c1ccc(C[C@H]2CNCCN2CC2CCCN2C[C@H](Cc2ccccc2)N2CCN(CCCCC3CCCCC3)[C@@H](Cc3ccccc3)C2)cc1 (some centres not stated) | 99 | 2 (≈ 2.9 µM) | 1 (≈ 1.45 µM) | 0.5
3 | c1ccc(C[C@H]2CNCCN2CC2CCCN2C[C@H](Cc2ccccc2)N2CCN(CC34CC5CC(CC(C5)C3)C4)[C@@H](Cc3ccccc3)C2)cc1 (some centres not stated) | 97 | 2 (≈ 2.86 µM) | 0.97 (≈ 1.39 µM) | 0.49
4 | c1ccc(C[C@H]2CNCCN2CC2CCCN2C[C@H](Cc2ccccc2)N2CCN(CCCC3CCCCC3)[C@@H](Cc3ccccc3)C2)cc1 (some centres not stated) | 99 | 2 (≈ 2.96 µM) | 0.94 (≈ 1.39 µM) | 0.47
5 | CC(C)CCCN1CCN([C@@H](Cc2ccccc2)CN2CCCC2CN2CCNC[C@@H]2Cc2ccccc2)C[C@@H]1Cc1ccccc1 (some centres not stated) | 99 | 2 (≈ 3.14 µM) | 0.89 (≈ 1.4 µM) | 0.45
6 | Brc1cccc(CCCN2CCN([C@@H](Cc3ccccc3)CN3CCCC3CN3CCNC[C@@H]3Cc3ccccc3)C[C@@H]2Cc2ccccc2)c1 (some centres not stated) | 99 | 3.9 (≈ 5.21 µM) | 1.12 (≈ 1.5 µM) | 0.29
7 | FC(F)(F)c1cccc(CCN2CCN([C@@H](Cc3ccccc3)CN3CCCC3CN3CCNC[C@@H]3Cc3ccccc3)C[C@@H]2Cc2ccccc2)c1 (some centres not stated) | 99 | 3.9 (≈ 5.39 µM) | 1.12 (≈ 1.55 µM) | 0.29
8 | Oc1ccc(CCN2CCN([C@@H](Cc3ccccc3)CN3CCCC3CN3CCNC[C@@H]3Cc3ccccc3)C[C@@H]2Cc2ccccc2)cc1 (some centres not stated) | 99 | 3.9 (≈ 5.8 µM) | 1.11 (≈ 1.65 µM) | 0.28
9 | Cc1cccc(CCN2CCN([C@@H](Cc3ccccc3)CN3CCCC3CN3CCNC[C@@H]3Cc3ccccc3)C[C@@H]2Cc2ccccc2)c1 (some centres not stated) | 99 | 3.9 (≈ 5.82 µM) | 1.05 (≈ 1.57 µM) | 0.27
10 | c1ccc(CCN2CCN([C@H](Cc3ccc4ccccc4c3)CN3CCCC3CN3CCNC[C@@H]3Cc3ccccc3)C[C@@H]2Cc2ccccc2)cc1 (some centres not stated) | 100 | 3.9 (≈ 5.52 µM) | 1.06 (≈ 1.5 µM) | 0.27
11 | Fc1ccc(CCN2CCN([C@@H](Cc3ccccc3)CN3CCCC3CN3CCNC[C@@H]3Cc3ccccc3)C[C@@H]2Cc2ccccc2)cc1 (some centres not stated) | 98 | 3.9 (≈ 5.79 µM) | 1.05 (≈ 1.56 µM) | 0.27
12 | Clc1ccc(CCN2CCN([C@@H](Cc3ccccc3)CN3CCCC3CN3CCNC[C@@H]3Cc3ccccc3)C[C@@H]2Cc2ccccc2)cc1Cl (some centres not stated) | 99 | 3.9 (≈ 5.38 µM) | 1.07 (≈ 1.48 µM) | 0.27
13 | CC(C)[C@@H](CN1CCCC1CN1CCNC[C@@H]1Cc1ccccc1)N1CCN(CCc2ccccc2)[C@@H](Cc2ccccc2)C1 (some centres not stated) | 100 | 3.9 (≈ 6.42 µM) | 1 (≈ 1.64 µM) | 0.26
14 | CCCC[C@@H](CN1CCCC1CN1CCNC[C@@H]1Cc1ccccc1)N1CCN(CCc2ccccc2)[C@@H](Cc2ccccc2)C1 (some centres not stated) | 100 | 3.9 (≈ 6.27 µM) | 1 (≈ 1.61 µM) | 0.26
15 | c1ccc(CCN2CCN([C@@H](Cc3ccc4ccccc4c3)CN3CCCC3CN3CCNC[C@@H]3Cc3ccccc3)C[C@@H]2Cc2ccccc2)cc1 (some centres not stated) | 100 | 3.9 (≈ 5.52 µM) | 1 (≈ 1.42 µM) | 0.26
16 | CCOc1ccc(CCN2CCN([C@@H](Cc3ccccc3)CN3CCCC3CN3CCNC[C@@H]3Cc3ccccc3)C[C@@H]2Cc2ccccc2)cc1 (some centres not stated) | 98 | 3.9 (≈ 5.57 µM) | 1.03 (≈ 1.47 µM) | 0.26
17 | CCCCCCCN1CCN([C@@H](Cc2ccccc2)CN2CCCC2CN2CCNC[C@@H]2Cc2ccccc2)C[C@@H]1Cc1ccccc1 (some centres not stated) | 99 | 3.9 (≈ 6 µM) | 1.03 (≈ 1.58 µM) | 0.26

Row | Structure (SMILES) | inhibition at 6.25 µg/mL [1] [%] | MIC [2] [µg/mL] | IC50 (Vero) [µg/mL] | Selectivity Index [3]
18 | CCC(C)CCN1CCN([C@@H](Cc2ccccc2)CN2CCCC2CN2CCNC[C@@H]2Cc2ccccc2)C[C@@H]1Cc1ccccc1 (some centres not stated) | 96 | 3.9 (≈ 6.13 µM) | 1 (≈ 1.57 µM) | 0.26
19 | c1ccc(C[C@H]2CNCCN2CC2CCCN2C[C@H](Cc2ccccc2)N2CCN(CCc3ccc(-c4ccccc4)cc3)[C@@H](Cc3ccccc3)C2)cc1 (some centres not stated) | 97 | 3.9 (≈ 5.33 µM) | 1 (≈ 1.37 µM) | 0.26
20 | CC(C)C[C@@H](CN1CCCC1CN1CCNC[C@@H]1Cc1ccccc1)N1CCN(CCc2ccccc2)[C@@H](Cc2ccccc2)C1 (some centres not stated) | 100 | 3.9 (≈ 6.27 µM) | 0.99 (≈ 1.59 µM) | 0.25
21 | c1ccc(CCN2CCN([C@@H](Cc3ccccc3)CN3CCCC3CN3CCNC[C@@H]3Cc3ccccc3)C[C@H]2CC2CCCCC2)cc1 (some centres not stated) | 98 | 3.9 (≈ 5.89 µM) | 0.97 (≈ 1.47 µM) | 0.25
22 | c1ccc(CCN2CCN([C@H](CC3CCCCC3)CN3CCCC3CN3CCNC[C@@H]3Cc3ccccc3)C[C@@H]2Cc2ccccc2)cc1 (some centres not stated) | 98 | 3.9 (≈ 5.89 µM) | 0.92 (≈ 1.39 µM) | 0.24
23 | c1ccc(C[C@H]2CNCCN2CC2CCCN2C[C@H](Cc2ccccc2)N2CCN(CC3(c4ccccc4)CC3)[C@@H](Cc3ccccc3)C2)cc1 (some centres not stated) | 99 | 3.9 (≈ 5.72 µM) | 0.94 (≈ 1.38 µM) | 0.24
24 | Cc1ccc(CN2CCN([C@@H](Cc3ccccc3)CN3CCCC3CN3CCNC[C@@H]3Cc3ccccc3)C[C@@H]2Cc2ccccc2)cc1 (some centres not stated) | 98 | 3.9 (≈ 5.95 µM) | 0.88 (≈ 1.34 µM) | 0.23
25 | CC(CCN1CCN([C@@H](Cc2ccccc2)CN2CCCC2CN2CCNC[C@@H]2Cc2ccccc2)C[C@@H]1Cc1ccccc1)c1ccccc1 (some centres not stated) | 99 | 3.9 (≈ 5.7 µM) | 0.87 (≈ 1.27 µM) | 0.22
26 | c1ccc(CCN2CCN([C@@H](Cc3ccccc3)CN3CCCC3CN3CCNC[C@H]3Cc3ccccc3)C[C@@H]2Cc2ccccc2)cc1 (some centres not stated) | 99 | 3.9 (≈ 5.95 µM) | 0.86 (≈ 1.31 µM) | 0.22
27 | c1ccc(C[C@H]2CNCCN2CC2CCCN2C[C@H](Cc2ccccc2)N2CCN(CCC3CC4CCC3C4)[C@@H](Cc3ccccc3)C2)cc1 (some centres not stated) | 97 | 3.9 (≈ 5.79 µM) | 0.87 (≈ 1.29 µM) | 0.22
28 | c1ccc(CCN2CCN([C@@H](Cc3ccccc3)CN3CCCC3CN3CCNC[C@@H]3Cc3ccccc3)C[C@@H]2CC2CCCCC2)cc1 (some centres not stated) | 99 | 3.9 (≈ 5.89 µM) | 0.82 (≈ 1.24 µM) | 0.21
29 | Fc1cccc(CCN2CCN([C@@H](Cc3ccccc3)CN3CCCC3CN3CCNC[C@@H]3Cc3ccccc3)C[C@@H]2Cc2ccccc2)c1 (some centres not stated) | 98 | 3.9 (≈ 5.79 µM) | 0.8 (≈ 1.19 µM) | 0.21
30 | CCC(C)CN1CCN([C@@H](Cc2ccccc2)CN2CCCC2CN2CCNC[C@@H]2Cc2ccccc2)C[C@@H]1Cc1ccccc1 (some centres not stated) | 97 | 3.9 (≈ 6.27 µM) | 0.7 (≈ 1.13 µM) | 0.18
31 | c1ccc(C[C@H]2CNCCN2CC2CCCN2C[C@H](Cc2ccccc2)N2CCN(CC3CCCCC3)[C@@H](Cc3ccccc3)C2)cc1 (some centres not stated) | 100 | 3.9 (≈ 6.02 µM) | 0.71 (≈ 1.1 µM) | 0.18
32 | c1ccc(C[C@H]2CNCCN2CC2CCCN2C[C@H](Cc2ccccc2)N2CCN(CCC3CCCCC3)[C@@H](Cc3ccccc3)C2)cc1 (some centres not stated) | 99 | 3.9 (≈ 5.89 µM) | 0.62 (≈ 0.937 µM) | 0.16
33 | c1ccc(C[C@H]2CNCCN2CC2CCCN2C[C@H](Cc2ccccc2)N2CCN(CCCC3CCCC3)[C@@H](Cc3ccccc3)C2)cc1 (some centres not stated) | 100 | 3.9 (≈ 5.89 µM) | 0.42 (≈ 0.634 µM) | 0.11

Source: ChEMBL document CHEMBL1153803, “Parallel synthesis of chiral pentaamines and pyrrolidine containing bis-heterocyclic libraries. Multiple scaffolds with multiple building blocks: a double diversity for the identification of new antitubercular compounds” (Bioorg Med Chem Lett, 2009)
